Assay results published in patent publication US20250382346A1, “NEURONAL PROMOTERS AND USES THEREOF” (priority 2023, published 2025).

What was measured:
hM3Dq = target: T1, hM3Dq (Homo sapiens, UniProt P20309, A239G/Y149C); assay: Striatal slice whole-cell recordings of retrogradely labeled D1-MSNs, hM3Dq; type: cell-based, mice; settings: AAV8R12-G88P3-HA-hM3Dq-2A-EYFP; CNO 10 μM; basal firing rate and resting membrane potential unaffected
T1 construct: expressed in transfected cells; host or cells: neurons of C57BL/6J mice or of macaques, transduced in vivo by nigral AAV8R12-G88P3-HA-hM3Dq
T1 sequence (P20309 whole entry Y149C/A239G): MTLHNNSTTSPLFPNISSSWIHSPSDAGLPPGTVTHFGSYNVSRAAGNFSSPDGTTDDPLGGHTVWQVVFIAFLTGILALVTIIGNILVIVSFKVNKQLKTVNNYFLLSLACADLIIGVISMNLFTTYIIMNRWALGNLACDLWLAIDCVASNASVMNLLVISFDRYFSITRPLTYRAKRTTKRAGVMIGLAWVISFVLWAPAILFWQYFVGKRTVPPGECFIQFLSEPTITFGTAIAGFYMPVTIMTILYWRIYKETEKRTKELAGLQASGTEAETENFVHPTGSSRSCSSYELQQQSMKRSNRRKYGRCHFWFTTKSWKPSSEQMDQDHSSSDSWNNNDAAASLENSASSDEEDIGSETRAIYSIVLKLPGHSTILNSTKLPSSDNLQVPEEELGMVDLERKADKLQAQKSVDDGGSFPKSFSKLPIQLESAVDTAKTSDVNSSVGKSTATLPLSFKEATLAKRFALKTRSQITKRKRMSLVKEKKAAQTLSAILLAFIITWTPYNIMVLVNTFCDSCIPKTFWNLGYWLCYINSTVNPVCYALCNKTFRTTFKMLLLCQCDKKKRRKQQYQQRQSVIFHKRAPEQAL
Source text: Mice from different groups were anesthetized with […] isoflurane, and then decapitated. The brain was quickly extracted and placed in ice-cold N-methyl-D-glucamine (NMDG) cutting solution containing (in mM): 92 NMDG, 2.5 KCl, 25 NaHCO3, 1.25 NaH2PO4, 4.5 D-Glucose, 20 HEPES, 5 L-ascorbic acid, 3 Na-pyruvate, 2 Thiourea, 10 MgSO4, 0.5 CaCl2). The pH was adjusted to 7.2±0.1 using HCl and the osmolarity was adjusted to 305±5 mosmol/L using NMDG. The solution was bubbled with 95% O2/5% CO2 prior to use. Coronal striatum slices were cut in 250-[…]m thickness with a vibratome slicer (Leica, VT1200 S), and then incubated in artificial cerebrospinal fluid (aCSF) saturated with 95% O2/5% CO2 for at least 45 min at 37° C. before recording. The aCSF contains (in mM) 125 NaCl, 1.25 KCl, 25 NaHCO3, 1.25 KH2PO4, 25 D-Glucose, 2 CaCl2) and 1 MgCl2, supplemented with 2 mM Na-pyruvate, 3 mM Myo-inositol and 0.4 mM L-ascorbic acid.
The acute striatum slice was transferred to the recording chamber with a constant perfusion of oxygenized aCSF at the rate of 3 ml/min. Neurons were visualized using an upright microscope (Olympus, BX-51) with a 40× water immersion objective at room temperature (˜25° C.). […] Neurons were quickly visualized under fluorescence microscope and then patch clamp were achieved under infrared light illumination and CCD camera. […]

[1] = Locomotion test in naïve macaques (no viral injection); type: in vivo; settings: naive macaques, n=3, not significant

## C[N+]1([O-])CCN(C2=Nc3cc(Cl)ccc3Nc3ccccc32)CC1 [CNO, Clozapine-N-oxide]
hM3Dq
  excitability of transduced MSNs upon CNO: augmentation of excitability
[1]; saline 0.767±0.4296
  percentage of contraversive and ipsiversive rotation (FIG. 11C), mean±SEM: 0.8384±0.4152
[1]; saline 39.07±5.889
  speed of contraversive rotations (FIG. 11G), mean±SEM: 39.63±7.092
[1]; saline 41.49±3.96
  speed of ipsiversive rotations (FIG. 11H), mean±SEM: 42.79±4.705
[1]; saline 53.12±15.3
  total distance (FIG. 11F), mean±SEM: 59.48±18.65
[1]; saline 55.73±2.64
  time spending in the higher portion of the observing cages (FIG. 11D), mean±SEM: 60.43±4.542
[1]; saline 149.9±21.61
  immobile time (FIG. 11E), mean±SEM: 149.8±22.65
